The values below are quoted from earlier work in patent US20170049851A1, “Method for Medical Treatment” (priority 2015, published 2017).

For the series the following is noted: healthy as well as unhealthy persons; some adverse effects, largely gastrointestinal, with very high intakes.

For the molecule `COC1=C(OC)C(=O)C(C/C=C(\C)CC/C=C(\C)CC/C=C(\C)CC/C=C(\C)CC/C=C(\C)CC/C=C(\C)CC/C=C(\C)CC/C=C(\C)CC/C=C(\C)CCC=C(C)C)=C(C)C1=O` [CoQ10, ubiquinone], the “daily dosage found to be tolerated” value was “up to 3600 mg”.
